Patent US11918582B2 (RAPT Therapeutics, Inc., priority 2021, dated 2024)

molecular target: T1, human HPK1 (MAP4K1) (Homo sapiens, UniProt Q92918); test: Biochemical assay for activity against HPK1 (ADP-Glo, MBP substrate); details: recombinant human HPK1 kinase domain, 1 nM enzyme, ADP-Glo luminescence
T1 construct: Recombinant human HPK1 kinase domain was obtained from ThermoFisher (Cat. #PV6357) and SignalChem (Cat. #M23-11G); purchased ThermoFisher; SignalChem PV6357; M23-11G
T1 sequence (Q92918 17-274 limits assumed): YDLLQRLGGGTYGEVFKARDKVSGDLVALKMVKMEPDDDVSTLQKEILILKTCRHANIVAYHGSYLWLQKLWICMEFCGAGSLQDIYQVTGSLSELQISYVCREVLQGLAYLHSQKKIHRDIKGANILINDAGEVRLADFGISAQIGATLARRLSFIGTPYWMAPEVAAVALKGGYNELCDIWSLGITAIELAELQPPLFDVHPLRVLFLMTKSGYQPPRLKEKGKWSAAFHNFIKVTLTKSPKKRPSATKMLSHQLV
In short: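 Recombinant human HPK1 kinase domain (1 nM solution) preincubated 15 min at room temperature with compounds in pH 7.5 HEPES buffer with NaCl, TCEP, MgCl2, Tween-20, BSA. MBP substrate with ATP added, reaction run 2 h at room temperature. ADP formation read by ADP-Glo luminescence to give IC50.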

IC50 [µM]	SMILES
< 0.1	COc1cc2c(cc1Nc1ncc3cnn(C[C@@H]4[C@H]5C[C@H]5CN4C(C)=O)c3n1)CN(C)CC2 [Example 220, 1-[(1S,2S,5R)-2-[[6-[(6-methoxy-2-methyl-3,4-dihydro-1H-isoquinolin-7-yl)amino]pyrazolo[3,4-d]pyrimidin-1-yl]methyl]-3-azabicyclo[3.1.0]hexan-3-yl]ethanone]
< 0.1	COc1cc2c(cc1Nc1ncc3cnn(C[C@@H]4C[C@H](O)CN4C(C)=O)c3n1)CN(C)CC2 [Example 221, 1-((2S,4S)-4-hydroxy-2-((6-((6-methoxy-2-methyl-1,2,3,4-tetrahydroisoquinolin-7-yl)amino)-1H-pyrazolo[3,4-d]pyrimidin-1-yl)methyl)pyrrolidin-1-yl)ethan-1-one]
< 0.1	COc1cc2c(cc1Nc1ncc3cnn(C[C@@H]4C[C@H](F)CN4C(C)=O)c3n1)CN(CCO)CC2 [Example 222, 1-((2S,4S)-4-fluoro-2-((6-((2-(2-hydroxyethyl)-6-methoxy-1,2,3,4-tetrahydroisoquinolin-7-yl)amino)-1H-pyrazolo[3,4-d]pyrimidin-1-yl)methyl)pyrrolidin-1-yl)ethan-1-one]
< 0.1	COc1cc2c(cc1Nc1ncc3cnn(C[C@@H]4[C@@H](C)CCN4C(C)=O)c3n1)CN(CCO)CC2 [Example 223, 1-((2S,3S)-2-((6-((2-(2-hydroxyethyl)-6-methoxy-1,2,3,4-tetrahydroisoquinolin-7-yl)amino)-1H-pyrazolo[3,4-d]pyrimidin-1-yl)methyl)-3-methylpyrrolidin-1-yl)ethan-1-one]
< 0.1	COc1cc2c(cc1Nc1ncc3cnn(C[C@@H]4CC[C@H](O)CN4C(C)=O)c3n1)CN(C)CC2 [Example 224, 1-((2S,5S)-5-hydroxy-2-((6-((6-methoxy-2-methyl-1,2,3,4-tetrahydroisoquinolin-7-yl)amino)-1H-pyrazolo[3,4-d]pyrimidin-1-yl)methyl)piperidin-1-yl)ethan-1-one]
< 0.1	COc1cc2c(cc1Nc1ncc3cnn(C[C@@H]4CC[C@@H](O)CN4C(C)=O)c3n1)CN(C)CC2 [Example 225, 1-((2S,5R)-5-hydroxy-2-((6-((6-methoxy-2-methyl-1,2,3,4-tetrahydroisoquinolin-7-yl)amino)-1H-pyrazolo[3,4-d]pyrimidin-1-yl)methyl)piperidin-1-yl)ethan-1-one]
